In the experiment the test system is BM4-5 FEO replicon (genotype 1b HCV). Put plainly: HCV replicon assay. The conditions noted are these: cells stably expressing BM4-5 FEO replicon, 48 hours incubation. In general terms: In antiviral work, replicon cells carry a viral genome segment that copies itself.

Method: HCV replicon assays were used to measure compound activity in cells. The impact of compounds on HCV replicon replication was assessed, using a method that was previously described (ref.: Wyles, D. L., Kaihara, K. A., Vaida, F. & Schooley, R. T. Synergy of small molecular inhibitors of hepatitis C virus replication directed at multiple viral targets. J Virol 81, 3005-8 (2007).) in cells stably expressing the BM4-5 FEO replicon in 96-well plates (10,000 cells/well). […] For testing the effect of compounds on the HCV replicon cells were incubated with compound for 48 hours and the results expressed as the mean (±SEM) of the relative light units for each condition. A sigmoidal dose response curve was then fitted to the data using Prism4.0 (GraphPad Software).

For the compound `CC(=O)c1ccc(C(=O)N[C@@H](CCCCN)C(=O)N2C[C@H](N)C[C@H](N)C2)cc1` [Formula III], the “Inhibition of HCV in a subgenomic replicon” value is listed as “inhibition of HCV”.

(Values after patent US8350042B2, “Antiviral compounds for the treatment of HCV infection” (The Regents of the University of California, priority 2008, dated 2013).)
